# Source: patent publication US5147866A, “1,2-diamino-cyclobuten-3,4-dione derivatives” (Beecham Group p.l.c., priority 1989, dated 1992)
# Tests used:
# [1] = Antihypertensive activity: systolic blood pressure, tail cuff method, spontaneously hypertensive rats; type: in vivo; conditions: spontaneously hypertensive rats (systolic blood pressure >180 mmHg)
# Protocol: Systolic blood pressures were recorded by a modification of the tail cuff method described by I. M. Claxton, M. G. Palfreyman, R. H. Poyser, R. L. Whiting, European Journal of Pharmacology, 37, 179 (1976). A W+W BP recorder, model 8005 was used to display pulses. Prior to all measurements rats were placed in a heated environment (33.5°±0.5° C.) before transfer to a restraining cage. Each determination of blood pressure was the mean of at least 5 readings. Spontaneously hypertensive rats (ages 12-18 weeks) with systolic blood pressures >180 mmHg were considered hypertensive.
# [2] = system: guinea-pig isolated trachealis; assay: Bronchodilator activity: inhibition of spontaneous tone in guinea-pig isolated trachealis; conditions: Cavia porcellus; tracheal spirals, Krebs solution 37° C.; relaxation as percentage of total relaxation with 10^-3 M isoprenaline
# Protocol: Male guinea pigs (300-600 g) were stunned by a blow to the head and bled from the carotid artery. The trachea was exposed, dissected free of connective tissue, and transferred to oxygenated Krebs solution at 37° C. Next, spirals (2 per trachea) were prepared by cutting the whole trachea spirally along its longitudinal axis and then dividing this spiral lengthwise. Each preparation was mounted, using silk thread, in a 10 ml organ bath filled with Krebs solution at 37° C. and bubbled with 5% CO2 with O2. The resting tension of the preparations was set at 2 g and changes in muscle tension were monitored isometrically by means of a UFI (2 oz) force and displacement transducer (Ormed Ltd) connected to a Linseis pen recorder. All preparations were allowed to equilibrate for 60 minutes. During this equilibration period the preparations were washed by upward displacement at 15 minute intervals and, if necessary, the resting tension was readjusted to 2 g using a mechanical micromanipulator system.
# Once a steady resting tension had been obtained, the preparations were dosed […] with the test compound (10^-8 -2×10^-5 M), and finally a maximum relaxation achieved by addition of 10^-3 M isoprenaline. The fall in tension evoked by the test compound was expressed as a percentage of the total relaxation evoked in the presence of […]. Appropriate concentration-relaxation curves were then constructed and values for potency (IC50) were obtained.
# [The composition of Krebs solution is: sodium chloride 118.07 mM, sodium hydrogen carbonate 26.19 mM, potassium chloride 4.68 mM, potassium orthophosphate 1.18 mM, magnesium sulphate septahydrate 1.8 mM and calcium chloride 2.52 mM;pH ca. 7.45.]
Compound,lowers blood pressure by ([1]; 3 mg/kg p.o.) [%],IC50 [2] [µM],lowers blood pressure by ([1]; 0.05 mg/Kg p.o.) [%]
CNc1c(N[C@@H]2c3cc(C#N)ccc3OC(C)(C)[C@H]2O)c(=O)c1=O (relative stereo) [Example 2],17,4,–
"CN(c1c(N)c(=O)c1=O)[C@@H]1c2cc(C#N)ccc2OC(C)(C)[C@H]1O (relative stereo) [Example 3, trans-N'-[4-(6-Cyano-3,4-dihydro-2,2-dimethyl-2H-1-benzopyran-3-ol)]-2-amino-1-methylaminocyclobutene-3,4-dione]",58,3.1,–
CC1(C)Oc2ccc(C#N)cc2[C@@H](Nc2c(N)c(=O)c2=O)[C@@H]1O (relative stereo) [Example 1],50,3.7,–
"CCc1ccc2c(c1)[C@@H](N(C)c1c(N)c(=O)c1=O)[C@H](O)C(C)(C)O2 [Example 12, trans-(3S,4R)-N^1-[4-(6-Ethyl-3,4-dihydro-2,2-dimethyl-2H-1-benzopyran-3-ol)]-2-amino-1-methylaminocyclobutene-3,4-dione]",–,–,24
